Reference: patent US11946028B2, “Fibrosis model on a chip” (The Trustees of the University of Pennsylvania, priority 2015, dated 2024)

Tested on: human lung fibroblasts
Test: Serum-induced fibrosis in biomimetic five-layer lung fibrosis model
Assay type: cell-based
Conditions: 2 μM PP2 added to medium 24 hours after assembly, maintained for the study; 0.2% serum in the model; FIG. 20
Text: The first and second channel slabs and the chamber slab of the model were formed using soft lithography techniques, in which the PDMS mixture was poured over the mold, and the slabs were allowed to cure. The microchannels were etched into each of the channel slabs, with the dimensions of 10 mm×1 mm×0.15 mm (length×width×height). The chamber was etched into the chamber slab, with the dimensions of 6 mm×3 mm×1 mm (length×width×height). See FIG. 9 for a picture of the five-layer model and FIG. 2A-2B for a schematic of the five-layer model.
Next, the cellular physiology of the cell-lined fluidic channels with the gel layer of the five-layer model was examined (FIG. 11). In this instance, the upper channel contained human lung endothelial cells cultured with commercially available medium from the supplying vendor of the cells. The lower channel contained small airway epithelial cells with similar specific medium, both from same vendor. The gel was created by adding collagen to physiological aqueous buffer at a concentration of 2 mg/ml and kept at 4° C. Human lung fibroblasts (100 K cells/ml) were added to the gel during the liquid phase. The side of the membranes facing the chamber slab were treated with sulfo-sanpah to promote collagen/ECM anchorage. The lower channel slab, lower membrane, and chamber slab were stacked. The gel was then pipetted into the chamber. […]

SMILES: CC(C)(C)n1nc(-c2ccc(Cl)cc2)c2c(N)ncnc21 [PP2]
- effect on serum-induced fibrosis: reduced fibrosis
